Assays:
Conditions in all cases: treatment: drug alone; 5 days
[1] = tested on: UO-31; assay: minimum viability across doses, drug alone, relative to DMSO (fraction); higher = less growth inhibition
Description: (§1)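 Primary HTS: 8 RCC cell lines treated with 8 doses (up to 10 uM) of each library drug alone for 5 days; viability read by CellTiter-Glo and normalised to DMSO. GI50 was fitted with XLfit (4-parameter), AUC is the area under the dose-response curve, and minimum viability is the lowest fraction of DMSO viability across doses.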

[2] = tested on: SN12C; assay: as above
Description: as §1

[3] = tested on: CAKI-1; assay: as above
Description: as §1

[4] = tested on: 769-P; assay: as above
Description: as §1

[5] = tested on: 786-O; assay: as above
Description: as §1

[6] = tested on: A498; assay: as above
Description: as §1

[7] = tested on: ACHN; assay: as above
Description: as §1

[8] = tested on: TK-10; assay: as above
Description: as §1

[9] = tested on: UO-31; assay: GI50, drug alone; higher = less potent
Description: as §1

[10] = tested on: SN12C; assay: GI50, drug alone; higher = less potent
Description: as §1

[11] = tested on: CAKI-1; assay: GI50, drug alone; higher = less potent
Description: as §1

[12] = tested on: 769-P; assay: GI50, drug alone; higher = less potent
Description: as §1

[13] = tested on: 786-O; assay: GI50, drug alone; higher = less potent
Description: as §1

[14] = tested on: A498; assay: GI50, drug alone; higher = less potent
Description: as §1

[15] = tested on: ACHN; assay: GI50, drug alone; higher = less potent
Description: as §1

[16] = tested on: TK-10; assay: GI50, drug alone; higher = less potent
Description: as §1

[17] = tested on: UO-31; assay: AUC of dose-response viability curve, drug alone (arbitrary (AUC of normalised viability)); higher = less growth inhibition
Description: as §1

[18] = tested on: SN12C; assay: as above
Description: as §1

[19] = tested on: CAKI-1; assay: as above
Description: as §1

[20] = tested on: 769-P; assay: as above
Description: as §1

[21] = tested on: 786-O; assay: as above
Description: as §1

[22] = tested on: A498; assay: as above
Description: as §1

[23] = tested on: ACHN; assay: as above
Description: as §1

[24] = tested on: TK-10; assay: as above
Description: as §1

GI50, drug alone [13] [nM]	GI50, drug alone [15] [nM]	SMILES	minimum viability across doses [1]	minimum viability across doses [2]	minimum viability across doses [3]	minimum viability across doses [4]	minimum viability across doses [5]	minimum viability across doses [6]	minimum viability across doses [7]	minimum viability across doses [8]	GI50, drug alone [9] [nM]	GI50, drug alone [10] [nM]	GI50, drug alone [11] [nM]	GI50, drug alone [12] [nM]	GI50, drug alone [14] [nM]	GI50, drug alone [16] [nM]	AUC of dose-response viability curve [17]	AUC of dose-response viability curve [18]	AUC of dose-response viability curve [19]	AUC of dose-response viability curve [20]	AUC of dose-response viability curve [21]	AUC of dose-response viability curve [22]	AUC of dose-response viability curve [23]	AUC of dose-response viability curve [24]
2900	303	CC(O)C(=O)O.CC(O)C(=O)O.CN1CCN(c2ccc3nc(-c4c(N)c5c(F)cccc5[nH]c4=O)[nH]c3c2)CC1 [Dovitinib Dilactic acid (TKI258 Dilactic acid)]	0.342	0.0691	0.0485	0.034	0.191	0.494	0.107	0.304	6520	1160	430	3050	> 10000	3160	4.66	2.38	2.21	3.15	2.9	4.64	2	2.61
> 10000	> 10000	COc1cc2nccc(Oc3ccc(NC(=O)NC4CC4)c(Cl)c3)c2cc1C(N)=O [E7080 (Lenvatinib)]	1.18	0.734	0.267	0.907	0.786	0.941	0.532	0.806	> 10000	> 10000	2270	> 10000	> 10000	> 10000	2.25	3.21	2.71	3.46	3.13	3.79	3.06	3.24
518	344	Cc1cc(Nc2cc(N3CCN(C)CC3)nc(/C=C/c3ccccc3)n2)n[nH]1.O=C(O)[C@H](O)[C@@H](O)C(=O)O [ENMD-2076]	0.0165	0.162	0.038	0.227	0.0558	0.427	0.109	0.146	1560	1090	456	2000	4110	1150	3.01	2.46	2.02	2.64	1.82	3.06	2.1	2.31
> 10000	1040	C#Cc1cccc(Nc2ncnc3cc(OCCOC)c(OCCOC)cc23)c1.Cl [Erlotinib HCl]	0.961	0.731	0.183	0.39	0.549	0.915	0.137	0.471	> 10000	> 10000	3610	3680	> 10000	5250	3.8	3.46	2.99	2.66	3.37	3.55	2.43	2.59

— the supplement of paper PMC8149375
